Source: patent US20240025899A1, “TRIHETEROCYCLIC DERIVATIVE, AND PHARMACEUTICAL COMPOSITION AND APPLICATION THEREOF” (SHANGHAI DE NOVO PHARMATECH CO., LTD., priority 2020, published 2024)
Where a name gives a salt, the structure may show the parent alone. Read-outs that look alike come from different tables or passages of the source.

Assays:
[1] = molecular target: CYP2D6 (Homo sapiens (Human), UniProt P10635); test: Cytochrome oxidase P450 inhibition study, CYP2D6; assay type: in vitro ADME; conditions: human liver microsomes; read-out: IC50 2D6
Sequence of CYP2D6 (P10635 whole entry): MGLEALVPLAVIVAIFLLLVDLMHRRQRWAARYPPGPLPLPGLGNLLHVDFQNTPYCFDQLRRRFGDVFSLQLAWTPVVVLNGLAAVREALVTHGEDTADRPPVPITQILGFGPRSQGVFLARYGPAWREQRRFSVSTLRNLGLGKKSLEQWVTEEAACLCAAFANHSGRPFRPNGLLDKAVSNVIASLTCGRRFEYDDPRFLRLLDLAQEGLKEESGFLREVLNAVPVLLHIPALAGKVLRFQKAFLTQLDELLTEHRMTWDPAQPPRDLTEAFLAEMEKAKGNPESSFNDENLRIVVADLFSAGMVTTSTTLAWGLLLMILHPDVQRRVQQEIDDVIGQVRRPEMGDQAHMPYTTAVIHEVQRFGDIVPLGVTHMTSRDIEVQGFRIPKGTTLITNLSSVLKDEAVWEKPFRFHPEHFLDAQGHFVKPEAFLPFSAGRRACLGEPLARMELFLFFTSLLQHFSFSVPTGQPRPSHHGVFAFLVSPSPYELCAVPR
Experimental: (§1) LC-MS/MS methods were used to evaluate the inhibitory effects of compounds on CYP2C19, 2D6 and 3A4 subtypes. In this method, the test compound was mixed with a solution of human liver microsomes containing CYP model substrates, and incubated together under the addition of NADPH, then the inhibitory IC50 of the compound on CYP2C19, 2D6 and 3A4 was calculated by measuring the amount of metabolites of the model substrate in the reaction solution. The specific experimental method is as follows:
(§2) Compounds to be tested were prepared as stock solutions at 10 mM concentration with DMSO and then diluted to 4 mM with acetonitrile solution. At the same time, the corresponding reference inhibitor solutions for CYP subtypes were prepared, for example, the reference inhibitor was Ketoconazole, then these two compounds were prepared separately ([…] of inhibitor DMSO stock solution+[…] of acetonitrile), and the samples prepared under the above conditions were at 400× concentration. Then, the above solution was 3-fold diluted with DMSO/acetonitrile mixture (v/v: 40/60) to prepare the final test solution, and seven concentration points were set for each test compound, and the initial test final concentration was 10 μM. […]
(§3) […] of human liver microsome solution (0.2 mg/mL) was added to each well containing the test compound in the 96-well plate, and then 2 mL of the final test sample of test compounds prepared by serial dilution as described above was added thereto; for each well corresponding to the reference inhibitors, […] of human liver microsome solution (0.2 mg/mL) and 1 mL of the final test sample were added. […] The inhibition rate was determined by comparing the amount of model substrate metabolites at each test concentration without test substance addition, in the GraphPad Prism 5.0 software, the logarithm of the test concentration was used as the abscissa and the inhibition rate was used as the ordinate to perform a linear regression (Sigmoidal (non-linear) dose-response model) analysis to obtain the IC50 value of the test compound.

[2] = molecular target: ATR/ATRIP kinase (Homo sapiens (Human), UniProt Q13535); test: ATR enzyme assay (HTRF, phosphorylation of substrate protein P53); assay type: biochemical; conditions: substrate P53, TR-FRET
Sequence of ATR/ATRIP kinase (Q13535 whole entry): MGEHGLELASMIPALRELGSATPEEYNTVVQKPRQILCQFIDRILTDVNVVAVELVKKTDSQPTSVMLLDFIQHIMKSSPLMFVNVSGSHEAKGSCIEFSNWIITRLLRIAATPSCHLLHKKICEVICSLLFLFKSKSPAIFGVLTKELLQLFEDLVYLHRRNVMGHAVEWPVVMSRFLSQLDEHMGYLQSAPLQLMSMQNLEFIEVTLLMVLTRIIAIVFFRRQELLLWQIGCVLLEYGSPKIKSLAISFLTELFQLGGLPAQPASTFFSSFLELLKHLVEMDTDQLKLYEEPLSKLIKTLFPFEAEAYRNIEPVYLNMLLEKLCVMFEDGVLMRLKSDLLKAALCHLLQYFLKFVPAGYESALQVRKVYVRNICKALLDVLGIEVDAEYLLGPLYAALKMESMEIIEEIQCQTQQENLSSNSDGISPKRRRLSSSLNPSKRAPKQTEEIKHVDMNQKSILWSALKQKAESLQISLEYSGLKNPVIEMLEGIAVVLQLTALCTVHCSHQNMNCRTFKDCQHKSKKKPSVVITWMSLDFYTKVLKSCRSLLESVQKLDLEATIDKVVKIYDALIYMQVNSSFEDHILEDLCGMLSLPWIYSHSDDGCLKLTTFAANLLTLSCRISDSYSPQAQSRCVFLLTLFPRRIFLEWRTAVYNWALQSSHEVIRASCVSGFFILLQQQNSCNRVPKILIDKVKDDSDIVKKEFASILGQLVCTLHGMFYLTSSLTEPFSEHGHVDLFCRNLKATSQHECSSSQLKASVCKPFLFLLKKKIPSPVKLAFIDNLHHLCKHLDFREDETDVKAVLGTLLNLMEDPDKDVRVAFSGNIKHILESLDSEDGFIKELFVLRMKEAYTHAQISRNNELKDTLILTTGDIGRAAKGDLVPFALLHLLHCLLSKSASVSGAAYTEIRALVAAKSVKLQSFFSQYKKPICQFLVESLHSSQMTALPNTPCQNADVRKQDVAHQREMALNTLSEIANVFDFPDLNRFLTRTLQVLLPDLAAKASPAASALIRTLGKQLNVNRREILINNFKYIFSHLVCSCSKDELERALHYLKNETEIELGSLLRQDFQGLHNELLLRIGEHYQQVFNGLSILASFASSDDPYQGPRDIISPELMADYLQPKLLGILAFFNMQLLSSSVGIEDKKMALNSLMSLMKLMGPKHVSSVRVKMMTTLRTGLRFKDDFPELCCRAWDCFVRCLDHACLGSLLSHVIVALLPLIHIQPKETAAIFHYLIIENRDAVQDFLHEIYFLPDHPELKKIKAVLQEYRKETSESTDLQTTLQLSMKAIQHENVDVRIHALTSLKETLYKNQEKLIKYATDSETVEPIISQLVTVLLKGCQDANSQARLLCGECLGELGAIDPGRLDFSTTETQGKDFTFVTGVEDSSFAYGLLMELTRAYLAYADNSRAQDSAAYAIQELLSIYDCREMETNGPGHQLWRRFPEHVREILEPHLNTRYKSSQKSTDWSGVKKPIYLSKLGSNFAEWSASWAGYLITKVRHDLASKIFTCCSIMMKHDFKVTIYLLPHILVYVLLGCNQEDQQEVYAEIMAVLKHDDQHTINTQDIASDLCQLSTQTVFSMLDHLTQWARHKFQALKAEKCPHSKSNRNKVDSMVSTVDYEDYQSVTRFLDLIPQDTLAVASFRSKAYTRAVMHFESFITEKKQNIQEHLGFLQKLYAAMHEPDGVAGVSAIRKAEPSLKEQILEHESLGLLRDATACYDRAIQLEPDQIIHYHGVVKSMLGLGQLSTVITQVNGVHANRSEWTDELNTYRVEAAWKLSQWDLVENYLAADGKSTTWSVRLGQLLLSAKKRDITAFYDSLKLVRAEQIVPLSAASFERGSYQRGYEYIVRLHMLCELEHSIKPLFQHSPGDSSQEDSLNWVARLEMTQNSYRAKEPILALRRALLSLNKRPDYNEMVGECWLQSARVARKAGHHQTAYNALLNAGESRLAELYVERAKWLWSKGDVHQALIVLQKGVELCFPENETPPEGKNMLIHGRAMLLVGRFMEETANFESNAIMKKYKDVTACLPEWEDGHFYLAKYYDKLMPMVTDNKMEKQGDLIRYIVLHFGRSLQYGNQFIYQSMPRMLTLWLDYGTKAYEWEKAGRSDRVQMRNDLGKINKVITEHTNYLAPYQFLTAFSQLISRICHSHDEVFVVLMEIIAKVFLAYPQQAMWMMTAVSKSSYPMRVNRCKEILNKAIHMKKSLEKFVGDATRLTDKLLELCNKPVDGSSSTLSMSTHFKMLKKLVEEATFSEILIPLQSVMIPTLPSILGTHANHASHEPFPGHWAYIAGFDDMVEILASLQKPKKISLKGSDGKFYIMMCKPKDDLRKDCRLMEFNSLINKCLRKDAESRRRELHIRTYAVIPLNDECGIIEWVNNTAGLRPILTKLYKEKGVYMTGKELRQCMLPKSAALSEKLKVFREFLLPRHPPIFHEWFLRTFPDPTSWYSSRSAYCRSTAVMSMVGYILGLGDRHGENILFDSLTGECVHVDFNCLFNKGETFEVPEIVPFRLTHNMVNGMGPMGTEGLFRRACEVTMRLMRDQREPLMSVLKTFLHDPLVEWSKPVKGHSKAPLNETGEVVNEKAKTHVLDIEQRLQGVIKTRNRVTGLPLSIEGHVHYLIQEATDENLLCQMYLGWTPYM
Sequence of ATR/ATRIP kinase (Q8WXE1 whole entry partner): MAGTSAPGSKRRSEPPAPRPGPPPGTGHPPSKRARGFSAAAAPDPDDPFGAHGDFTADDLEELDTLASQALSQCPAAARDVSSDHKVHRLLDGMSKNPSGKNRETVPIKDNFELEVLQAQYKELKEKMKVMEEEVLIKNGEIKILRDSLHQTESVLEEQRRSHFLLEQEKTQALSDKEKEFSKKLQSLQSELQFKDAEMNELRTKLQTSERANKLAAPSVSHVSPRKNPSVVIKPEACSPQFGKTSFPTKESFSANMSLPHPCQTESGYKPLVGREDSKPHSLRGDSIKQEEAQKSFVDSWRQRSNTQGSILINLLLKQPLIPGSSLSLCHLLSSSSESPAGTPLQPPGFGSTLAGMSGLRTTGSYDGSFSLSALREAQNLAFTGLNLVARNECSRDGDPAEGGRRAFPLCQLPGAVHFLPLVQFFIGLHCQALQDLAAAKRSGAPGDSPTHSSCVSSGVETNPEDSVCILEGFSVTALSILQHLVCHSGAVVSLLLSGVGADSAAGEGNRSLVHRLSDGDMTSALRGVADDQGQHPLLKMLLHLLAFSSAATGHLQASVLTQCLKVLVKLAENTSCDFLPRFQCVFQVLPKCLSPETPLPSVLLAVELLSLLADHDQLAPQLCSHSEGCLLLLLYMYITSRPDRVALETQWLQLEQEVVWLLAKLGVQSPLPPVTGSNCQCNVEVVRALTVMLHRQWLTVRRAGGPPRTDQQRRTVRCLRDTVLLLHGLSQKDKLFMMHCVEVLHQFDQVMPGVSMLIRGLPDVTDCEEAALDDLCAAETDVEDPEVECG
Experimental: In this experiment, the phosphorylation level of substrate protein P53 (Eurofins, 14-952) was detected by HTRF technology to measure the activity of ATR/ATRIP (Eurofins, 14-953) kinase. Reaction buffer (25 mM HEPES pH 8.0, 0.01% Brij-35, 1% Glycerol, 5 mM DTT, 1 mg/mL BSA), termination buffer (12.5 mM HEPES pH 8.0, 0.005% Brij-35, 0.5% Glycerol, 250 mM EDTA) and assay buffer (50 mM HEPES pH 7.0, 150 mM NaCl, 267 mM KF, 0.1% sodium cholate, 0.01% Tween 20) were prepared in advance. ATR/ATRIP was diluted with reaction buffer to a working solution of 2 ng/μL, and the substrate protein P53 was diluted with reaction buffer to a working solution of 80 nM, and 4 nM of ATP (Sigma, A2383) working solution (containing 40 mM MnCl2) was prepared with reaction buffer. The compound was 3-fold diluted with DMSO, then diluted with reaction buffer into a working solution, then added to a 384-well plate at 2.5 μL/well, and centrifuged at 1500 rpm for 40 s. Then 2.5 μL of ATR/ATRIP working solution, P53 working solution and ATP working solution were added into the 384-well plate, centrifuged at 1500 rpm for 40 s and reacted at room temperature for 30 minutes. After the reaction was completed, 5 μL of termination buffer was added to each well, and centrifuged at 1500 rpm for 40 s. Antibody working solution containing 0.083 μg/mL anti-phospho-p53 (Ser15)-K (CisBio, cat. 61P08KAE) and 5 μg/mL anti-GST-d2 (CisBio, cat. 61GSTDLA) was prepared with assay buffer and added to the 384-well plate at 5 μL/well, then centrifuged at 1500 rpm for 40 s and reacted overnight at room temperature. Microplate reader (Tecan, Infinite M1000 Pro) was used to detect TR-FRET, and the data were analyzed with Graphpad software, and the four-parameter equation was used to fit the curve and calculate the IC50 value of the inhibitor (Table 1).

[3] = molecular target: CYP2C19 (Homo sapiens (Human), UniProt P33261); test: Cytochrome oxidase P450 inhibition study, CYP2C19; assay type: in vitro ADME; conditions: human liver microsomes; read-out: IC50 2C19
Sequence of CYP2C19 (P33261 whole entry): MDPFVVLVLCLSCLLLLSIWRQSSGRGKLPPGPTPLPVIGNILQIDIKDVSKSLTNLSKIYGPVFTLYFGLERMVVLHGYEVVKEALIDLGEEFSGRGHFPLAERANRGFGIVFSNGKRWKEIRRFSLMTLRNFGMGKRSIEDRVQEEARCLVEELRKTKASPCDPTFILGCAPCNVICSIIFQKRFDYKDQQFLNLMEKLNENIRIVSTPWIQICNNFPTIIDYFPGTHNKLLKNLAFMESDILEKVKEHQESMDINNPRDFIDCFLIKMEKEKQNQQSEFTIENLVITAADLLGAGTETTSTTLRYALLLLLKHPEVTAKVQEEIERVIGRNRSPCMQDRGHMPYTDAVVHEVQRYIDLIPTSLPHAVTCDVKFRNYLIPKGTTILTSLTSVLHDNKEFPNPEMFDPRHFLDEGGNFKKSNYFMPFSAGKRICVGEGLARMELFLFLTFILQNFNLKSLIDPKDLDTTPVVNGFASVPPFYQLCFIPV
Experimental: as §1, §2, §3

[4] = molecular target: hERG channel (Homo sapiens (Human), UniProt Q12809); test: Cardiac safety evaluation, hERG study (QPatch whole-cell recording); assay type: cell-based; conditions: CHO cell line expressing hERG channel
Experimental: In this experiment, a CHO cell line stably transfected with hERG cDNA and expressing p15 hERG channel was used. Cells were incubated at 37° C. in a humidified incubator containing 5% CO2 in medium (Ham's F12, 10% v/v FBS, 100 μg/mL hygromycin B, 100 μg/mL geneticin) (from Invitrogen). Cells were grown under the above conditions and reached approximately 80-90% of the confluency. Cells were treated with Detachin (Genlantis) for 3 to 5 minutes. The medium was titrated 15 to 20 times at 37° C., and then the cells were resuspended in CHO-S-SFM II medium (serum-free medium, Invitrogen) buffered with HEPES (25 mM). Cells used for QPatch studies must meet the following criteria: Most suspension cells should be single and isolated under microscopy; viability should be greater than 95%; cell density in the final suspension should be in the range of 3 to 8×10^6 cells/mL before application to the QPatch stir chamber. Cells meeting the above conditions can be used for recordings within 4 hours of harvest.
Test compounds were made into 10 mM DMSO stock solutions. Six doses (30, 10, 3, 1, 0.3 and 0.1 μM) were selected to obtain the fitted curves and IC50. The final DMSO concentration was 0.1% or less. The IC50 of the positive control cisapride was assessed at doses of 3, 1, 0.3, 0.1, 0.03 and 0.01 μM, respectively. Composition of […] for electrophysiological recordings: CaCl2 2 mM, MgCl2 1 mM, KCl 4 mM, NaCl 145 mM, Glucose 10 mM, HEPES 10 mM, pH 7.4 (NaOH), composition of external solution: CaCl2 […], MgCl2 1.75 mM, KCl 120 mM, HEPES 10 mM, EGTA 5 mM, Na-ATP 4 mM, pH 7.25 (KOH) (all reagents used were from sigma).
Whole-cell recordings were performed using automated QPatch (Sophion Biosciences, Denmark). Cells were recorded for 120 s to assess current stability. The above voltages were then applied to the cells every 15 s throughout the procedure. […]
The data were analyzed with Sophion Assay software (determination software V5.0), Microsoft Excel and Graphpad Prism 5.0 to obtain IC50 of compounds.

[5] = molecular target: CYP3A4 (Homo sapiens (Human), UniProt P08684); test: Cytochrome oxidase P450 inhibition study, CYP3A4; assay type: in vitro ADME; conditions: human liver microsomes
Sequence of CYP3A4 (P08684 whole entry): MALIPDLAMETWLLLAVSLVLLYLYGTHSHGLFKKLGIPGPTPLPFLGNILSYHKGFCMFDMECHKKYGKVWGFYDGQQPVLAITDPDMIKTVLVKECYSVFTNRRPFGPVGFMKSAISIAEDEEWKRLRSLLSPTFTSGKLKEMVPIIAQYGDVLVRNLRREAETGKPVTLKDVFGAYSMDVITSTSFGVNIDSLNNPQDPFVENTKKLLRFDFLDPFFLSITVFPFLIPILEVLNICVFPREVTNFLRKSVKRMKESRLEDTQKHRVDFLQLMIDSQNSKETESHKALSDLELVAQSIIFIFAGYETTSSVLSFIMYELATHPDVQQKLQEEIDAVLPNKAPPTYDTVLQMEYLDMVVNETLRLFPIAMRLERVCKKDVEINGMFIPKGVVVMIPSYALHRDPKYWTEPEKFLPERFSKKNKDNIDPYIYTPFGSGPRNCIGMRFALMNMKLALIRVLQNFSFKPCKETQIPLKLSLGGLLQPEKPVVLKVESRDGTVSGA
Experimental: as §1
Compounds to be tested were prepared as stock solutions at 10 mM concentration with DMSO and then diluted to 4 mM with acetonitrile solution. At the same time, the corresponding reference inhibitor solutions for CYP subtypes were prepared, for example, the reference inhibitor was Ketoconazole, then these two compounds were prepared separately ([…] of inhibitor DMSO stock solution+[…] of acetonitrile), and the samples prepared under the above conditions were at 400× concentration. Then, the above solution was 3-fold diluted with DMSO/acetonitrile mixture (v/v: 40/60) to prepare the final test solution, and seven concentration points were set for each test compound, and the initial test final concentration was 10 μM. NADPH, CYP enzyme model substrate and human liver microsome solution were diluted to appropriate concentrations with pre-warmed potassium phosphate buffer (0.1 M, pH 7.4), respectively. The human liver microsome solution was purchased from BD Gentest (20 mg/mL, Corning, article number #452161).
[…] of human liver microsome solution (0.2 mg/mL) was added to each well containing the test compound in the 96-well plate, and then 2 mL of the final test sample of test compounds prepared by serial dilution as described above was added thereto; for each well corresponding to the reference inhibitors, […] of human liver microsome solution (0.2 mg/mL) and 1 mL of the final test sample were added. […] of the prepared corresponding model substrate was dispensed into a 96-well plate, and the microsome solution was mixed evenly, then 30 mL of the test compound/reference inhibitor-human liver microsome mixture was taken and transferred to the 96-well plate containing the substrate, and the mixture was mixed well and preheated at 37° C. for 5 minutes, then […] of 8 mM NADPH solution preheated at 37° C. was added thereto to start the reaction. A duplicate well control and a blank control without the addition of test substances were set at the same time. The 96-well plate containing a total volume of […] of reaction solution was incubated at 37° C. After the incubation, 120 μL of cold acetonitrile solution containing internal standard was added to each well to terminate the reaction, and then the 96-well plate was shaked on a microplate shaker for 5 minutes (600 rpm/min), and put into a centrifuge and centrifuged for 20 minutes at 6000 rpm, 4° C. Then 40 μL of supernatant from each well was transferred to another 96-well plate, and 80 μL of ultrapure water was added to each well, put into a shaker and mixed for 5 minutes (600 rpm/min), and centrifuged at 6000 rpm, 4° C., for 20 minutes. Then LC-MS/MS detection was performed. The inhibition rate was determined by comparing the amount of model substrate metabolites at each test concentration without test substance addition, in the GraphPad Prism 5.0 software, the logarithm of the test concentration was used as the abscissa and the inhibition rate was used as the ordinate to perform a linear regression (Sigmoidal (non-linear) dose-response model) analysis to obtain the IC50 value of the test compound.

IC50 [1]: > 10 µM
IC50 [2]: 0.00051 µM
IC50 [3]: > 10 µM
IC50 ([5]; substrate Midazolam, read-out: IC50 3A4 (Midazolam)): > 10 µM
IC50 ([5]; substrate Testosterone, read-out: IC50 3A4 (Testosterone)): > 10 µM
SMILES: C[C@@H]1COCCN1c1nc2c(cnn2-c2cc[nH]n2)c2c1ccn2S(=O)(=O)N(C)C [Compound 3, (R)—N,N-dimethyl-4-(3-methylmorpholino)-6-(1H-pyrazol-3-yl)pyrazolo[3,4-b]pyrrolo[2,3-d]pyridine-1(6H)-sulfonamide trifluoroacetate]
IC50 [4]: > 30 µM
